According to patent publication US6838416B2, “Herbicidal 5-benzyloxymethyl-1,2-isoxazoline derivatives” (Korea Research Institute of Chemical Technology, priority 2000, dated 2005):

Assays:
ECHOR (seed) = assay: Assay for herbicidal activity, paddy pots: ECHOR; type: in vivo, Echinochloa crus-galli var. oryzicola; details: for ECHOR (seed) herbicidal activity, visual percentage grading: three weeks after application, 0 untreated control, 100 complete kill
Excerpt: (§1) To evaluate herbicidal activity against the paddy weeds in the paddy rice (ORYSA: Oryza sativa L.), the herbicidal activity of the compounds of the invention was compared to that of the compound No.109 (compound A) disclosed in U.S. Pat. […] The paddy weeds tested were ECHOR (Echinochloa crus-galli var. oryzicola), SCPJU (Scirpus juncoides ROXB), MOOVA (Monochoria vaginalis […] (Cyperus serotinus ROTTB), and SAGPY (Sagittaria pygmaea MTQ). The vessels employed were plastic pots having an area of 140 cm^2 and filled with a sandy loam soil containing 1.2% organic matter (pH 6).

MOOVA (seed) = assay: Assay for herbicidal activity, paddy pots: MOOVA; type: in vivo, Monochoria vaginalis PRESL; details: three weeks after application, 0 untreated control, 100 complete kill
Excerpt: as §1

SCPJU (seed) = assay: Assay for herbicidal activity, paddy pots: SCPJU; type: in vivo, Scirpus juncoides ROXB; details: three weeks after application, 0 untreated control, 100 complete kill
Excerpt: as §1

CYPSE (tuber) = assay: Assay for herbicidal activity, paddy pots: CYPSE; type: in vivo, Cyperus serotinus ROTTB; details: three weeks after application, 0 untreated control, 100 complete kill
Excerpt: as §1

SAGPY (tuber) = assay: Assay for herbicidal activity, paddy pots: SAGPY; type: in vivo, Sagittaria pygmaea MTQ; details: three weeks after application, 0 untreated control, 100 complete kill
Excerpt: as §1

Structure (SMILES) | ECHOR (seed) herbicidal activity, visual percentage grading (ECHOR (seed); 0.016 kg/ha) | ECHOR (seed) herbicidal activity, visual percentage grading (ECHOR (seed); 0.063 kg/ha) | ECHOR (seed) herbicidal activity, visual percentage grading (ECHOR (seed); 0.250 kg/ha) | ECHOR (seed) herbicidal activity, visual percentage grading (ECHOR (seed); 1.000 kg/ha) | ECHOR (seed) herbicidal activity, visual percentage grading (ECHOR (seed); 4.000 kg/ha) | MOOVA (seed) herbicidal activity, visual percentage grading (MOOVA (seed); 0.016 kg/ha) | MOOVA (seed) herbicidal activity, visual percentage grading (MOOVA (seed); 0.063 kg/ha) | MOOVA (seed) herbicidal activity, visual percentage grading (MOOVA (seed); 0.250 kg/ha) | MOOVA (seed) herbicidal activity, visual percentage grading (MOOVA (seed); 1.000 kg/ha) | MOOVA (seed) herbicidal activity, visual percentage grading (MOOVA (seed); 4.000 kg/ha) | SCPJU (seed) herbicidal activity, visual percentage grading (SCPJU (seed); 0.016 kg/ha) | SCPJU (seed) herbicidal activity, visual percentage grading (SCPJU (seed); 0.063 kg/ha) | SCPJU (seed) herbicidal activity, visual percentage grading (SCPJU (seed); 0.250 kg/ha) | SCPJU (seed) herbicidal activity, visual percentage grading (SCPJU (seed); 1.000 kg/ha) | SCPJU (seed) herbicidal activity, visual percentage grading (SCPJU (seed); 4.000 kg/ha) | CYPSE (tuber) herbicidal activity, visual percentage grading (CYPSE (tuber); 0.016 kg/ha) | CYPSE (tuber) herbicidal activity, visual percentage grading (CYPSE (tuber); 0.063 kg/ha) | CYPSE (tuber) herbicidal activity, visual percentage grading (CYPSE (tuber); 0.250 kg/ha) | CYPSE (tuber) herbicidal activity, visual percentage grading (CYPSE (tuber); 1.000 kg/ha) | CYPSE (tuber) herbicidal activity, visual percentage grading (CYPSE (tuber); 4.000 kg/ha) | also measured
Cc1cc(C)c(C2=NOC(C)(COCc3c(F)cccc3F)C2)s1 (stereo not shown) [EXAMPLE 15, 5-(2,6-difluorobenzyl)oxymethyl-5-methyl-3-(2,4-dimethylthiophene-5-yl)-1,2-isoxazoline] | 40% | 100% | 100% | 100% | 100% | 90% | 100% | 100% | 100% | 100% | 20% | 50% | 100% | 100% | 100% | 0% | 0% | 70% | 100% | 100% | SAGPY (tuber) herbicidal activity, visual percentage grading (SAGPY (tuber); 0.016 kg/ha): 0%; SAGPY (tuber) herbicidal activity, visual percentage grading (SAGPY (tuber); 0.063 kg/ha): 0%; SAGPY (tuber) herbicidal activity, visual percentage grading (SAGPY (tuber); 0.250 kg/ha): 20%; SAGPY (tuber) herbicidal activity, visual percentage grading (SAGPY (tuber); 1.000 kg/ha): 40%; SAGPY (tuber) herbicidal activity, visual percentage grading (SAGPY (tuber); 4.000 kg/ha): 70%
Cc1ccsc1C1=NOC(C)(COCc2ccccc2)C1 (stereo not shown) [EXAMPLE 5, 5-benzyloxymethyl-5-methyl-3-(4-methylthiophene-5-yl)-1,2-isoxazoline] | 0% | 30% | 100% | 100% | 100% | 0% | 10% | 80% | 90% | 100% | 0% | 10% | 30% | 60% | 100% | 0% | 0% | 30% | 100% | 100% | SAGPY (tuber) herbicidal activity, visual percentage grading (SAGPY (tuber); 0.016 kg/ha): 0%; SAGPY (tuber) herbicidal activity, visual percentage grading (SAGPY (tuber); 0.063 kg/ha): 0%; SAGPY (tuber) herbicidal activity, visual percentage grading (SAGPY (tuber); 0.250 kg/ha): 20%; SAGPY (tuber) herbicidal activity, visual percentage grading (SAGPY (tuber); 1.000 kg/ha): 50%; SAGPY (tuber) herbicidal activity, visual percentage grading (SAGPY (tuber); 4.000 kg/ha): 70%
CC1(COCc2c(F)cccc2F)CC(c2sccc2Br)=NO1 (stereo not shown) [EXAMPLE 19, 5-(2,6-difluorobenzyl)oxymethyl-5-methyl-3-(4-bromothiophene-5-yl)-1,2-isoxazoline] | 100% | 100% | 100% | 100% | 100% | 20% | 95% | 100% | 100% | 100% | 0% | 100% | 100% | 100% | 100% | 30% | 90% | 90% | 100% | 100% | herbicidal activity on ECHOR, in words (ECHOR (seed); low dose of 0.016 Kg/ha): completely controls the growth of ECHOR; SAGPY (tuber) herbicidal activity, visual percentage grading (SAGPY (tuber); 0.016 kg/ha): 0%; SAGPY (tuber) herbicidal activity, visual percentage grading (SAGPY (tuber); 0.063 kg/ha): 0%; SAGPY (tuber) herbicidal activity, visual percentage grading (SAGPY (tuber); 0.250 kg/ha): 0%; SAGPY (tuber) herbicidal activity, visual percentage grading (SAGPY (tuber); 1.000 kg/ha): 20%; SAGPY (tuber) herbicidal activity, visual percentage grading (SAGPY (tuber); 4.000 kg/ha): 30%
CC1(COCc2c(F)cccc2F)CC(c2ccc([N+](=O)[O-])s2)=NO1 (stereo not shown) [EXAMPLE 23, 5-(2,6-difluorobenzyl)oxymethyl-5-methyl-3-(2-nitrothiophene-5-yl)-1,2-isoxazoline] | 0% | 30% | 100% | 100% | 100% | 0% | 50% | 70% | 100% | 100% | 0% | 0% | 0% | 0% | 100% | 0% | 0% | 50% | 80% | 100% | SAGPY (tuber) herbicidal activity, visual percentage grading (SAGPY (tuber); 0.016 kg/ha): 0%; SAGPY (tuber) herbicidal activity, visual percentage grading (SAGPY (tuber); 0.063 kg/ha): 0%; SAGPY (tuber) herbicidal activity, visual percentage grading (SAGPY (tuber); 0.250 kg/ha): 0%; SAGPY (tuber) herbicidal activity, visual percentage grading (SAGPY (tuber); 1.000 kg/ha): 0%; SAGPY (tuber) herbicidal activity, visual percentage grading (SAGPY (tuber); 4.000 kg/ha): 0%
COc1ccsc1C1=NOC(C)(COCc2c(F)cccc2F)C1 (stereo not shown) [EXAMPLE 21, 5-(2,6-difluorobenzyl)oxymethyl-5-methyl-3-(4-methoxythiophene-5-yl)-1,2-isoxazoline] | 0% | 100% | 100% | 100% | 100% | 0% | 100% | 100% | 100% | 100% | 0% | 100% | 100% | 100% | 100% | 0% | 40% | 60% | 80% | 100% | SAGPY (tuber) herbicidal activity, visual percentage grading (SAGPY (tuber); 0.016 kg/ha): 0%; SAGPY (tuber) herbicidal activity, visual percentage grading (SAGPY (tuber); 0.063 kg/ha): 0%; SAGPY (tuber) herbicidal activity, visual percentage grading (SAGPY (tuber); 0.250 kg/ha): 0%; SAGPY (tuber) herbicidal activity, visual percentage grading (SAGPY (tuber); 1.000 kg/ha): 0%; SAGPY (tuber) herbicidal activity, visual percentage grading (SAGPY (tuber); 4.000 kg/ha): 0%
Cc1ccc(C2=NOC(C)(COCc3cccc(F)c3)C2)s1 (stereo not shown) [EXAMPLE 3, 5-(3-fluorobenzyl)oxymethyl-5-methyl-3-(2-methylthiophene-5-yl)-1,2-isoxazoline] | 20% | 55% | 100% | 100% | 100% | 20% | 50% | 60% | 80% | 100% | 0% | 20% | 40% | 60% | 100% | 0% | 40% | 90% | 100% | 100% | SAGPY (tuber) herbicidal activity, visual percentage grading (SAGPY (tuber); 0.016 kg/ha): 0%; SAGPY (tuber) herbicidal activity, visual percentage grading (SAGPY (tuber); 0.063 kg/ha): 0%; SAGPY (tuber) herbicidal activity, visual percentage grading (SAGPY (tuber); 0.250 kg/ha): 0%; SAGPY (tuber) herbicidal activity, visual percentage grading (SAGPY (tuber); 1.000 kg/ha): 50%; SAGPY (tuber) herbicidal activity, visual percentage grading (SAGPY (tuber); 4.000 kg/ha): 40%
